Three molecules from patent publication US10464941B2, “Therapeutic compounds” (REGENTS OF THE UNIVERSITY OF MINNESOTA, priority 2015, dated 2019) can be followed below.

Marks after values point to notes of the source that are not given here.

One data set concerns control mice. As to the kind of experiment: Radiant heat tail-flick antinociception, control (LPS-untreated) mice. Type of data set: in vivo. The settings on record: control mice; for CONTROLS ED50 (CI) i.c.v. / CONTROLS ED50 (CI) i.t.: tail flick. An excerpt:
Pain is a hallmark of many inflammatory conditions.

The next data set concerns LPS-pretreated mice. As to the kind of experiment: animal or person. The following applies: for LPS pretreated i.c.v./i.t. ratio / LPS pretreated ED50 (CI) i.c.v. / LPS pretreated ED50 (CI) i.t.: LPS 1 mg/kg 24 hours i.p.; for LPS pretreated ED50 (CI) i.c.v. / LPS pretreated ED50 (CI) i.t.: tail flick; for LPS pretreated ED50 (CI) i.t. / ED50 values (95% CI) LPS (thermal) / tolerance upon repeated administration: i.t.; for ED50 values (95% CI) LPS (thermal): LPS thermal hyperalgesia model; for tolerance upon repeated administration: LPS-pretreated mice. The procedure:
Male ICR-CD1 mice (17-25 g; Harlan, Madison, Wis.), C3H mice (15-20 g, National Cancer Institute, Bethesda, Md.) or TLR4 knock-out mice (gift from Dr. Sabita Roy) were housed, 4 to a small box in a temperature- and humidity-controlled environment with unlimited access to food and water. They were maintained on a 12 h light/dark cycle. All experiments were approved by the Institutional Animal Care and Use Committee of the University of Minnesota (Minneapolis, Minn.).
The tail flick assay is used to test for antinociception described by D'Amour and Smith^64 and modified by Dewey et. al.^65 Mice are held gently in one hand with the tail positioned in the apparatus (Tail Flick Analgesia Meter, Columbus Instruments, Columbus, Ohio) for radiant heat stimulus. The tail-flick response is elicited by applying radiant heat to the dorsal side of the tail. The test latency is measured before drug treatment (control) and again after the drug treatment (test) at the peak time of the compound, a 10 s maximum cut-off time is used to prevent damage to the tail. Antinociception is quantified according to the method of Harris and Pierson^66 as the percent maximal possible effect (% MPE) which is calculated as: % MPE=(Test−Control/10−Control)×100
A minimum of three groups of eight to ten mice are used for each dose response curve, and each mouse is used only once.
The compounds were tested for acute tolerance by comparing the ED80-90 dose measured on day 1 to the same dose administered and retested 24 hours later on the same mouse.
Compounds were dissolved in 5% DMSO and diluted to less than 1% DMSO for injection. These compounds were administered in a volume of 5-μl either i.c.v (Haley and McCormick) or intrathecal (i.t.) as described for mice by Hylden and Wilcox^67 in conscious mice. […] Time course studies, including the times 5, 10, 20, 30 and 60 minutes were used to determine the peak antinociception.
Pain is a hallmark of many inflammatory conditions. […] Antinociception was evaluated using the radiant heat-induced tailflick assay. Morphine was employed as a standard opioid agonist under these conditions.

For data set [1], the system named is CFA-induced mechanical hyperalgesia mouse model. The data set can be described thus: Complete Freund's Adjuvant (CFA) mechanical hyperalgesia, electronic von Frey. The settings on record: i.t. Type of data set: in vivo, mice. The protocol: Before injection of CFA baseline withdrawal thresholds (g) were obtained from a mechanical stimulation using an electronic von Frey anesthesiometer (IITC Life Sciences, Woodland Hills, USA) by applying an accurate force on both left and right hind paw. (2,3) The left hindpaws were then injected (intraplantar) with a 50% solution of CFA (10 μg, Sigma-Aldrich) in water while the mice are under isoflurane anesthesia (10). Twenty-four hours later the withdrawal threshold (g) was again measured prior to and after the test compound i.t. at 10, 20, 30 and 60 minutes to determine the peak time and subsequent ED50. % MPE was calculated ((Time-point withdrawal threshold with drug−CFA withdrawal threshold)/(Day 0 withdrawal threshold−CFA withdrawal threshold))*100 (Wade, C. L., et al., PLoS One 2013, 8, e79239/1-e79239/11, 11 pp; Martinov, T., et al., J Vis Exp 2013, e51212; Sorge, R. E., et al., J. Neurosci. 2011, 31, 15450-15454).

For data set [2], the target named is T1, CCR5 receptors expressed in HEK-293 cells (Homo sapiens, UniProt P51681).
T1 construct: expressed in transfected cells; host or cells: HEK-293 cells, transient transfection with Lipofectamine 2000
As to the kind of experiment: Intracellular calcium release, CCL5-stimulated CCR5 in HEK-293 cells. In kind it is cell-based. The settings on record: CCR5 expressing HEK cells stimulated by CCL5. The protocol:
Briefly, HEK-293 cells were cultured at 37° C. in Dulbelcco's modified Eagle's medium supplemented with 10% fetal bovine serum and 1% Penicillin/Streptomycin. Then 100 mm^2 were transiently transfected with CCR5 receptor cDNA using OptiMEM-1 medium (Invitrogen) and Lipofectamine 2000 (Invitrogen, Carlsbad, Calif.) reagent according to manufacturer's protocol (1:2 wt/vol ratio for DNA:Lipofectamine; 16 μg DNA: 32 μl Lipofectamine). The cells were seeded into 96 well plates (half-area; Corning) at 20,000 cells/well after 24 hours and assayed 48 hours after transfection using the FLIPR calcium kit (Molecular Devices) in a Flexstation-III apparatus (Molecular Devices). Cells were incubated with the calcium dye for 45 minutes at 37° C. before the antagonists were added to each well at the concentration listed, and incubated at 37° C. for 15 minutes. The control agonist, CCL5 (RANTES), was added at a concentration that elicited an 80% maximal response in untreated cells (100 nM) to each well and the calcium response measured with and without antagonists for 90 seconds. The change in RFU was calculated by subtracting the minimum relative fluorescent unit (RFU) from the maximum RFU response, replicated 6 times and averaged. Each experiment was repeated at least 3 times and the mean±SEM was plotted for each treatment group. Plates were 80-90% confluent, cells

Data set [3] concerns mice with cisplatin-induced hyperalgesia. The data set can be described thus: Cisplatin-induced peripheral neuropathy, mechanical hyperalgesia (von Frey). Type of data set: in vivo, C3H/HeJ mice. The settings on record: cisplatin model. The protocol: Adult male C3H/HeJ mice were tested for mechanical paw withdrawal responses on 2 consecutive days prior to treatment by determining the frequency of hind paw withdrawal evoked by a standard von Frey monofilament with a bending force of 3.9 mN applied to the plantar surface of the hind paws. Mice were then given 1 mg/kg of cisplatin intraperitoneal (i.p.) daily for 7 consecutive days and on day 14 post-injection, mechanical hyperalgesia was assessed. Compounds were administered intrathecally (i.t.) and i.p. weekly to determine peak time effects and ED50/80.

T1 sequence (P51681 whole entry): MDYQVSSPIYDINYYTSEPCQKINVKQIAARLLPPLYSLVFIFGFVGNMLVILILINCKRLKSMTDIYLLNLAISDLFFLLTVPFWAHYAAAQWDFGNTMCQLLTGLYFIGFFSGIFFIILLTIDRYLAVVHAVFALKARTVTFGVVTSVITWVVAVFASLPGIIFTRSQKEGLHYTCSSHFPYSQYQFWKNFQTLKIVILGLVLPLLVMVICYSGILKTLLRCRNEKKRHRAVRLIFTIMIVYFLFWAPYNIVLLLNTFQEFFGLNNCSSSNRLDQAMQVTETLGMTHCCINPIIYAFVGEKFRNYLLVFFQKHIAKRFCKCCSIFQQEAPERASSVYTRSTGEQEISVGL

As to `CNC(=O)COCC(=O)NCCCCCCCNC(=O)COCC(=O)N[C@H]1CC[C@@]2(O)C3Cc4ccc(O)c5c4[C@@]2(CCN3C)[C@H]1O5` [Compound 4, reference compound], the CONTROLS i.c.v./i.t. ratio in the data set with control mice was 0.95. In the data set with control mice (i.c.v.), the “acute tolerance (ED80 retested 24 hours later)” value is listed as “(83.1-141)^c” and the “CONTROLS ED50 (CI) i.c.v.” value is 108 pmol/mouse. Also, in the data set on control mice (i.t.), the “acute tolerance (ED80 retested 24 hours later)” value was “(86.5-148)^c” and the “CONTROLS ED50 (CI) i.t.” value is recorded as 113 pmol/mouse. Moreover, in the data set on LPS-pretreated mice, the “LPS pretreated i.c.v./i.t. ratio” value amounted to 7.93, the “LPS pretreated ED50 (CI) i.c.v.” value is 169 pmol/mouse, the “LPS pretreated ED50 (CI) i.t.” value is on record as 21.3 pmol/mouse and the “ED50 values (95% CI) LPS (thermal)” value was 21 pmol/mouse. Moreover, the “tolerance upon repeated administration” value in the data set with LPS-pretreated mice is given as “exhibited tolerance”. In addition, the “ED50 values (95% CI) CFA (mechanical)” value in data set [1] stood at 27 pmol/mouse.
In the case of `CNC(=O)COCC(=O)N1CCC(CC(=O)N(CCCN2CCC(Cc3ccc(C(N)=O)cc3)CC2)c2ccc(C)c(Cl)c2)CC1` [Compound 8c, N-(3-(4-(4-carbamoylbenzyl)piperidin-1-yl)propyl)-N-(3-chloro-4-methylphenyl)-1-(2-(2-(methylamino)-2-oxoethoxy)acetyl)piperidine-4-carboxyamide], the “inhibiting calcium release (compared with TAK-220)” value in data set [2] is recorded as “equally potent”.
In the case of `CN1CC[C@]23c4c5ccc(O)c4O[C@H]2[C@@H](O)C=C[C@H]3[C@H]1C5` [Morphine, morphine, reference compound], in the data set on control mice, the CONTROLS i.c.v./i.t. ratio stood at 11.1. In the data set on control mice (i.c.v.), the “CONTROLS ED50 (CI) i.c.v.” value is 301 pmol/mouse. In addition, the “CONTROLS ED50 (CI) i.t.” value with control mice (i.t.) was 27.0 pmol/mouse. Further, in the data set on LPS-pretreated mice, the “LPS pretreated i.c.v./i.t. ratio” value is listed as 8.60, the “LPS pretreated ED50 (CI) i.c.v.” value was determined as 301 pmol/mouse, the “LPS pretreated ED50 (CI) i.t.” value amounted to 35.0 pmol/mouse and the “ED50 values (95% CI) LPS (thermal)” value was 35 pmol/mouse. Besides, the “tolerance upon repeated administration” value in the data set with LPS-pretreated mice is reported as “exhibited tolerance”. Moreover, in data set [1], the “ED50 values (95% CI) CFA (mechanical)” value was 15 pmol/mouse. Further, in data set [3] (i.p.), the “ED50 (95% CI) i.p.” value is 14.28 pmol/mouse and the tolerance result is given as “significant tolerance”. Also, in data set [3] (i.p., listed as morphine), the tolerance result is listed as “exhibits 24 h tolerance”. In data set [3] (i.t.), the “ED50 (95% CI) i.t.” value was determined as 27.44 pmol/mouse and the tolerance result is given as “significant tolerance”.
